This note sets out measurements from ChEMBL document CHEMBL5291721, “A preclinical secondary pharmacology resource illuminates target-adverse drug reaction associations of marketed drugs” (Nat Commun, 2023).

Experiment [1] addresses T1, Corticotropin-releasing factor receptor 1 (Homo sapiens, UniProt P34998).
T1 sequence (P34998 whole entry): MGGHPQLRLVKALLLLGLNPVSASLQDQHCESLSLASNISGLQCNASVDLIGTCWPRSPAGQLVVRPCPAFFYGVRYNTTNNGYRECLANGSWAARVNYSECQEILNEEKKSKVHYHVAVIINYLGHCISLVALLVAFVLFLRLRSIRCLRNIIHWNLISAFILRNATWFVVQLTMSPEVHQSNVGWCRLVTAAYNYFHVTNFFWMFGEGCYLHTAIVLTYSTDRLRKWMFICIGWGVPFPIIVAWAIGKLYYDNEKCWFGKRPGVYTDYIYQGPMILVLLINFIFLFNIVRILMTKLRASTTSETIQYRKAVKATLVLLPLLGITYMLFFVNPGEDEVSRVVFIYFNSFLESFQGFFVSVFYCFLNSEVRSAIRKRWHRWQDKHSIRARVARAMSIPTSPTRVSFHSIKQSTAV

For a further experiment, the target named is T2, Androgen receptor (Rattus norvegicus, UniProt P15207).
T2 sequence (P15207 whole entry): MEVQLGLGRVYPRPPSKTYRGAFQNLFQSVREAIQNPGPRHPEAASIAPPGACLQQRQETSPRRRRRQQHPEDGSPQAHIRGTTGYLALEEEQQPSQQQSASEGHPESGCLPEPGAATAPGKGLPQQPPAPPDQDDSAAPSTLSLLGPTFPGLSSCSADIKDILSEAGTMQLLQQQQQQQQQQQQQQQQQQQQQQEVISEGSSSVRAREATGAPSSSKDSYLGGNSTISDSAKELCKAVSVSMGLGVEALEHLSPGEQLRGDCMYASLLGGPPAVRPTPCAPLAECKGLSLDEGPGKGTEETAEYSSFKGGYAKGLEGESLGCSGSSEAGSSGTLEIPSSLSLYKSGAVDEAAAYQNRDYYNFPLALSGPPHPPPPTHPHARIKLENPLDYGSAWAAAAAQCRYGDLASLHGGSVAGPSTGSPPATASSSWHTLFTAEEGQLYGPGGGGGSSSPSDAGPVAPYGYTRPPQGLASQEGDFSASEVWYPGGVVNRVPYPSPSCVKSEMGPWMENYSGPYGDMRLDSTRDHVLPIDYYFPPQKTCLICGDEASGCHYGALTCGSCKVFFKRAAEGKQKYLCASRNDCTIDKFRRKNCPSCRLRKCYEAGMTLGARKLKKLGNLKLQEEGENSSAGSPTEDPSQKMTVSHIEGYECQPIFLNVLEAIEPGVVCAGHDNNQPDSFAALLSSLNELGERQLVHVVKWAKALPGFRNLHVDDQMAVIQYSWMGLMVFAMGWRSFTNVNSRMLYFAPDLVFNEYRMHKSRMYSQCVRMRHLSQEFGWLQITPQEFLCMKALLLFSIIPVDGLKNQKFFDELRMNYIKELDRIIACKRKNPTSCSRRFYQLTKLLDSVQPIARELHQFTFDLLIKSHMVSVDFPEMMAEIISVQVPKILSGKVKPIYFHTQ

In experiment [2] the target is Voltage-dependent N-type calcium channel subunit alpha-1B (Rattus norvegicus, UniProt Q02294). In kind it is functional.
Chain of Voltage-dependent N-type calcium channel subunit alpha-1B (Q02294 whole entry): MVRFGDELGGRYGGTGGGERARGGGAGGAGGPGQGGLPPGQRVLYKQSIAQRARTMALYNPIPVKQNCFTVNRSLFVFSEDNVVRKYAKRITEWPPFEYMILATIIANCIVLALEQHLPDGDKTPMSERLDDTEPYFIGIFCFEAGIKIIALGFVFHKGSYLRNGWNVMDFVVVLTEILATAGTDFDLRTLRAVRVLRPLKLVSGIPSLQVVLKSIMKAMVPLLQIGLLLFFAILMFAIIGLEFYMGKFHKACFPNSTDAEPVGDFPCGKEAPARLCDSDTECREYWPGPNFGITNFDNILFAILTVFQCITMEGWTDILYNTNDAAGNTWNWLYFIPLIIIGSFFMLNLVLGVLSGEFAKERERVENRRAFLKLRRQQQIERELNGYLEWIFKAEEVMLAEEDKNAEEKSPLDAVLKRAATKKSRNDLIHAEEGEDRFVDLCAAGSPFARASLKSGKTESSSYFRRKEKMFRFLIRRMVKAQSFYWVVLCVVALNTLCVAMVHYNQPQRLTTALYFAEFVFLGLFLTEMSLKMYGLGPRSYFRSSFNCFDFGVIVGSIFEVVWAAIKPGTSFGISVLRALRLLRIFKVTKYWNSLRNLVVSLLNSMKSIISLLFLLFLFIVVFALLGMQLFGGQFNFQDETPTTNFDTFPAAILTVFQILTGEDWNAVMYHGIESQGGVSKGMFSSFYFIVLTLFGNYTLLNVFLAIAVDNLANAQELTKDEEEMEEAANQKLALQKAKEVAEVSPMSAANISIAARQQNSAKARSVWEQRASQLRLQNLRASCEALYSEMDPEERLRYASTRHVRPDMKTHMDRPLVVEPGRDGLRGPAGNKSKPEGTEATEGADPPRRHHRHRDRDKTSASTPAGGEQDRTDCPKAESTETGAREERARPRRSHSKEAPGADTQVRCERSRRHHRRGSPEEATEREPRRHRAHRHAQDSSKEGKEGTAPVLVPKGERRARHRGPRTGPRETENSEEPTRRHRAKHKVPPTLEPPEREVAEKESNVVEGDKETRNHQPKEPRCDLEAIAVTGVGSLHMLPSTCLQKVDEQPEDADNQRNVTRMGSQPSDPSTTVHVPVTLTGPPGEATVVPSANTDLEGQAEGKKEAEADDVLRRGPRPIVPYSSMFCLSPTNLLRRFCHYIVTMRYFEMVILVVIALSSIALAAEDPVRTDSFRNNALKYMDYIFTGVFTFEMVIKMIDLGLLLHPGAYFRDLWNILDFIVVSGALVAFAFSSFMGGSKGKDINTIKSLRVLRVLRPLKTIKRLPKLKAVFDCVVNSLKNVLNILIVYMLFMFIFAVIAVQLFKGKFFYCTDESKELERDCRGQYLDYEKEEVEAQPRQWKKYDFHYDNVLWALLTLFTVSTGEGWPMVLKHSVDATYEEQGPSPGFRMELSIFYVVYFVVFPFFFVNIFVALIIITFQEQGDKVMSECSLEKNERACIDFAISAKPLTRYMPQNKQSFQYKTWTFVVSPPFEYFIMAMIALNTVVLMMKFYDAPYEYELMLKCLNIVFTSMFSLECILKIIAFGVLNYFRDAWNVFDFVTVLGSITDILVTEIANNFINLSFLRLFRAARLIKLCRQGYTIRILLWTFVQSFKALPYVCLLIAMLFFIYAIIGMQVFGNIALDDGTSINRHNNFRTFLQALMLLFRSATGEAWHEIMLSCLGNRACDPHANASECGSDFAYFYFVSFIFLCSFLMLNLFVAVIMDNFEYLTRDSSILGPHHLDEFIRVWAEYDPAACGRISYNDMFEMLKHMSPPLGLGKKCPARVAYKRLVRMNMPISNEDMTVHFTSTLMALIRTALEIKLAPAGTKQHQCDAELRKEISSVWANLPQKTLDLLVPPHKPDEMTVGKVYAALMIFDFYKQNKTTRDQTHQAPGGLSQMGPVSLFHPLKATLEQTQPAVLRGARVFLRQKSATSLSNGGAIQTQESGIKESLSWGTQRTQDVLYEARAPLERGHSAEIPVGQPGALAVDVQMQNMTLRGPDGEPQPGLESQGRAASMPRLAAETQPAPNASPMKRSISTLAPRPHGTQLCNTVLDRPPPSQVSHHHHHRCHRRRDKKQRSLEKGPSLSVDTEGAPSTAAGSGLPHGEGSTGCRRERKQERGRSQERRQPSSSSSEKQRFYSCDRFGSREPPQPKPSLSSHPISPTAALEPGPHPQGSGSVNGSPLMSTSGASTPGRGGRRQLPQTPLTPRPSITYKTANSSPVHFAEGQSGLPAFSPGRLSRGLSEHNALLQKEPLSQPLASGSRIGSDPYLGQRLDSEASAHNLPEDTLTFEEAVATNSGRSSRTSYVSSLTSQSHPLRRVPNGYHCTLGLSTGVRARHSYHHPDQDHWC
Experiment [3] concerns the target T3, Gastric inhibitory polypeptide receptor (Homo sapiens, UniProt P48546).
T3 sequence (P48546 whole entry): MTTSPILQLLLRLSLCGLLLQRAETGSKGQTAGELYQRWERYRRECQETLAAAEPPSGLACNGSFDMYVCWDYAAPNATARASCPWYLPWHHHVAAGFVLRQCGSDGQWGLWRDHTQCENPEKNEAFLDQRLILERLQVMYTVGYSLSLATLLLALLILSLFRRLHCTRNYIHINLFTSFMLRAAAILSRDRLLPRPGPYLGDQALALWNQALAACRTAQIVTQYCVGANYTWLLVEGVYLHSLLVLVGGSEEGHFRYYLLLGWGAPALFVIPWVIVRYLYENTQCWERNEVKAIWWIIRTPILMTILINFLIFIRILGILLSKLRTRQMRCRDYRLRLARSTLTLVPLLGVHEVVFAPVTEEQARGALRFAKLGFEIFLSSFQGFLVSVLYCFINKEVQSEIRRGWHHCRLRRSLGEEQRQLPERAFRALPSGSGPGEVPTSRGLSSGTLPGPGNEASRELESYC

The target of a further experiment is T4, B1 bradykinin receptor (Homo sapiens, UniProt P46663).
T4 sequence (P46663 whole entry): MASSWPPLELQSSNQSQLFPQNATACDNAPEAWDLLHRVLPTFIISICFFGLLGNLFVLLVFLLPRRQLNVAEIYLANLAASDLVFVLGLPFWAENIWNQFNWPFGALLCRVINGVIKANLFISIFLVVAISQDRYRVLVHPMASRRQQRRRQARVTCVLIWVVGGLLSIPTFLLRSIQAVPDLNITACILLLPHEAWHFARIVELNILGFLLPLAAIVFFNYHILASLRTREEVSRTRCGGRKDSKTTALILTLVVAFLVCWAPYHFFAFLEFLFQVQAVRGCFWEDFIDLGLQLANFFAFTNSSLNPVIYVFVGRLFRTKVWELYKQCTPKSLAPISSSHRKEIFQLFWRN

In another experiment the target is Glucagon receptor (Homo sapiens, UniProt P47871).
Chain of Glucagon receptor (P47871 whole entry): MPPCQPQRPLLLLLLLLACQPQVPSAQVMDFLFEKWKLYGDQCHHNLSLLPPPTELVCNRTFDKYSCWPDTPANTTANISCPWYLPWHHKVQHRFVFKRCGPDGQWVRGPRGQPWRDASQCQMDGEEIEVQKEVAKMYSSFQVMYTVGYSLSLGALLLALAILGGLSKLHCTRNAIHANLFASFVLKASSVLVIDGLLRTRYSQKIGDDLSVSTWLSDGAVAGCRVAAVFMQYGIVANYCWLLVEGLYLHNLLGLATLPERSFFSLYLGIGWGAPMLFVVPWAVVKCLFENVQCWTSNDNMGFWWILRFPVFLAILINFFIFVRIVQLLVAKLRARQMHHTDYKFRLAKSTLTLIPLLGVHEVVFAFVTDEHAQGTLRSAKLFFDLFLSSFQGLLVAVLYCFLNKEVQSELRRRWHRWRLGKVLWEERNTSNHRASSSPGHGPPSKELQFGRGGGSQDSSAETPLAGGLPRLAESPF
Also: assay procedure not described here.

The term AC50 denotes the concentration giving half of the maximal activity seen. With `COc1ccc2cccc(CCNC(C)=O)c2c1` [AGOMELATINE], the AC50 in experiment [1] is > 30 µM; on Androgen receptor, > 30 µM; in experiment [2], > 10 µM; in experiment [3] it was > 30 µM; on B1 bradykinin receptor, > 30 µM; at Glucagon receptor, > 30 µM.

As to `CN1CCc2cccc3c2[C@H]1Cc1ccc(O)c(O)c1-3` [APOMORPHINE], the AC50 was > 30 µM in experiment [1]; > 10 µM in experiment [2]; > 30 µM in experiment [3]; > 30 µM on B1 bradykinin receptor; > 30 µM on Glucagon receptor.

Regarding `CC(C)c1c(C(=O)Nc2ccccc2)c(-c2ccccc2)c(-c2ccc(F)cc2)n1CC[C@@H](O)C[C@@H](O)CC(=O)O` [ATORVASTATIN], the AC50 was > 30 µM in experiment [1]; > 10 µM in experiment [2]; > 30 µM in experiment [3]; > 30 µM at B1 bradykinin receptor; > 30 µM at Glucagon receptor.

Take `NC(CO)C(=O)NNCc1ccc(O)c(O)c1O` (stereo unspecified) [BENSERAZIDE]: the AC50 in experiment [1] was > 30 µM; on Androgen receptor, > 30 µM; in experiment [2] it was > 10 µM; in experiment [3], > 30 µM; on B1 bradykinin receptor, > 30 µM; on Glucagon receptor, > 30 µM.

For `CN(C)C(=O)OC1N=C(c2ccccc2)c2cc(Cl)ccc2N(C)C1=O` (stereo unspecified) [CAMAZEPAM], the AC50 in experiment [1] was > 30 µM; at Androgen receptor it was > 30 µM; in experiment [2], > 10 µM; in experiment [3], > 30 µM; on B1 bradykinin receptor it was > 30 µM; at Glucagon receptor, > 30 µM.

With `CC(=O)O[C@@]12CO[C@@H]1C[C@H](O)[C@@]1(C)C(=O)[C@H](O)C3=C(C)[C@@H](OC(=O)[C@H](O)[C@@H](NC(=O)OC(C)(C)C)c4ccccc4)C[C@@](O)([C@@H](OC(=O)c4ccccc4)[C@H]21)C3(C)C` [DOCETAXEL ANHYDROUS], at Androgen receptor, the AC50 was > 30 µM.

`CN[C@@H](C)[C@H](O)c1ccccc1` [EPHEDRINE]: the AC50 in experiment [1] was > 30 µM; in experiment [2] it was > 10 µM; in experiment [3] it was > 30 µM; at B1 bradykinin receptor, > 30 µM; on Glucagon receptor it was > 30 µM.

Take `C#CC1(OC(N)=O)CCCCC1` [ETHINAMATE]: the AC50 on Androgen receptor is > 10 µM.

With `CCNC(C)Cc1cccc(C(F)(F)F)c1` (stereo unspecified) [FENFLURAMINE], the AC50 is > 30 µM in experiment [1]; > 10 µM in experiment [2]; > 30 µM in experiment [3]; > 30 µM at B1 bradykinin receptor; > 30 µM on Glucagon receptor.

Consider `CCC1(C2=CCCCCC2)C(=O)NC(=O)NC1=O` [HEPTABARBITAL], for which the AC50 at Androgen receptor was > 10 µM.

For the compound `CCCCCN(C)CCC(O)(P(=O)(O)O)P(=O)(O)O` [IBANDRONIC ACID], the AC50 is > 30 µM in experiment [1]; > 30 µM at Androgen receptor; > 10 µM in experiment [2]; > 30 µM in experiment [3]; > 30 µM on B1 bradykinin receptor; > 30 µM at Glucagon receptor.

With `COC(=O)C1=C(C)NC(C)=C(C(=O)OC(C)C)C1c1cccc2nonc12` (stereo unspecified) [ISRADIPINE], at Androgen receptor, the AC50 is > 30 µM.

As to `CN1CC[C@]23CCCC[C@H]2[C@H]1Cc1ccc(O)cc13` [LEVORPHANOL], the AC50 at Androgen receptor was > 10 µM.

For `CCN1CCC[C@H]1CNC(=O)c1cc(S(N)(=O)=O)ccc1OC` [LEVOSULPIRIDE], the AC50 at Androgen receptor is > 30 µM.

Take `CC1=CC(=O)c2ccccc2C1=O` [MENADIONE]: at Androgen receptor, the AC50 is > 30 µM.

Consider `Cc1cc(-c2ccccc2)nnc1NCCN1CCOCC1` [MINAPRINE], for which the AC50 in experiment [1] is > 30 µM; in experiment [2] it was > 10 µM; in experiment [3], > 30 µM; at B1 bradykinin receptor it was > 30 µM; on Glucagon receptor it was > 30 µM.

On to `NC(=O)C[S+]([O-])C(c1ccccc1)c1ccccc1` (stereo unspecified) [MODAFINIL], for which the AC50 in experiment [1] is > 30 µM; in experiment [2] it was > 10 µM; in experiment [3], > 30 µM; at B1 bradykinin receptor it was > 30 µM; on Glucagon receptor it was > 30 µM.

Take `CN1CCC2=C(C1)C(c1ccccc1)c1ccccc12` (stereo unspecified) [PHENINDAMINE]: at Androgen receptor, the AC50 was > 30 µM.

As to `O=C(O)CCCc1ccccc1` [PHENYLBUTANOIC ACID], the AC50 in experiment [1] was > 30 µM; in experiment [2], > 10 µM; in experiment [3], > 30 µM; at B1 bradykinin receptor, > 10 µM; on Glucagon receptor it was > 30 µM.

As to `CCN(CC)CCOC(=O)c1ccc(N)cc1` [PROCAINE], the AC50 in experiment [2] was > 10 µM.

Turning to `C#CCN[C@@H]1CCc2ccccc21` [RASAGILINE], the AC50 on Androgen receptor was > 30 µM.

As for `Cc1c(C(=O)Nc2ccc(N3C[C@@H](C)O[C@@H](C)C3)nc2)cccc1-c1ccc(OC(F)(F)F)cc1` [SONIDEGIB], the AC50 was > 30 µM in experiment [1]; > 30 µM on Androgen receptor; > 10 µM in experiment [2]; > 30 µM in experiment [3]; > 30 µM on B1 bradykinin receptor; > 30 µM on Glucagon receptor.

Turning to `CN[C@@H]1[C@H](O)[C@H](NC)[C@H]2O[C@@]3(O)C(=O)C[C@@H](C)O[C@H]3O[C@@H]2[C@H]1O` [SPECTINOMYCIN], on Androgen receptor, the AC50 is > 10 µM.

In the case of `Cc1ccc(-c2nc3ccc(C)cn3c2CC(=O)N(C)C)cc1` [ZOLPIDEM], the AC50 was > 30 µM in experiment [1]; > 10 µM in experiment [2]; > 30 µM in experiment [3]; > 30 µM at B1 bradykinin receptor; > 30 µM at Glucagon receptor.

As to `CN1CCN(C(=O)OC2c3nccnc3C(=O)N2c2ccc(Cl)cn2)CC1` (stereo unspecified) [ZOPICLONE], the AC50 in experiment [1] is > 30 µM; in experiment [2] it was > 10 µM; in experiment [3], > 30 µM; on B1 bradykinin receptor it was > 30 µM; on Glucagon receptor, > 30 µM.
